{
  "source": "patent US6949516B2",
  "about": "“Dipeptide apoptosis inhibitors and the use thereof” (Cytovia, Inc., priority 1997, dated 2005)",
  "key": {"[1]": {"test_system": "rat transient focal ischemia model", "test": "Rat transient focal ischemia model", "assay_type": "in vivo", "conditions": "for reduction of cortical infarction: p<0.05", "source_text": "(i) Preparative Surgery: Male Fischer-344 rats (Harlan Sprague Dawley, Calif.) weighing 200-240 g, were used. Animals were initially anesthetized with 3% halothane in a mixture of 30% oxygen and 70% air. Halothane level were reduced to 1.5% for maintenance of anesthesia throughout surgery. […] (b) Arterial catheter implantation: the femoral artery were cannulated to allow monitoring of the blood pressure, and other physiological conditions include pO2, pCO2, pH, glucose, hematocrite, during ischemia, initial drug administration, and the time of arterial reperfusion. Both arterial and venous catheters were exteriorized through the back of the animal, to allow free movement. (c) A PhysioTel Transmitter (Data Sciences International, Mich.) were implanted into the peritoneal cavity to remotely monitor the body temperature of the animals for 22 hours.\n(ii) Physiological parameters: Core body temperature was maintained at 37.5° C. during surgery, using a YSI Reusable Temperature Probe (YSI Co. Inc., Yellow Spring, Ohio) connected to a YSI Temperature Control Unit (Model 73A, YSI Co. Inc., Ohio) and a Electric Heating Pad (Model 756, Sunbean-Oster Co. Inc., Hattiesburg, Miss.). Following ischemia, the PhysioTel Transmitter was activated and core body temperature was recorded every 5 minutes. Systemic blood pressure was monitored throughout surgery, during intravenous drug infusion (bolus), and 1, 2, 3, and 4 hours after the onset of ischemia. Other physiological conditions, including pO2, pCO2, pH, glucose, and hematocrite were examined at the time of arterial occlusion and reperfusion.\n(iii) Transient focal ischemia model: Following preparative surgery, a ventral midline cervical incision was made to expose both CCAs. The right CCA was permanently ligated with 4-o silk ligature, while the left CCA was clamped with an atraumatic aneurysm clip. A 1-cm incision perpendicular to and bisecting a line between the lateral canthus of the right eye and the external auditory canal was made. The underlying temporalis muscle was excised and retracted and under direct visualization with the aid of a dissecting microscope (Model SZ-STB1, Olympus, Japan), the middle cerebral artery (MCA) was exposed through a 2 mm burr hole drilled 2-3 mm rostral to the fusion of the zygomatic arch and the squamosal bone. Drilling was done under a continuous irrigation of physiological saline. The dura was cut and retracted to expose the MCA in the rhinal fissure. A Codman micro-aneurysm clip (No. 1) was used to temporarily occlude the MCA as it crosses the rhinal fissure. […] The areas of cortical and subcortical infarction were measured blindly with imaging processing software, and the volume of infarction was calculated by adding up individual measures with known thickness. […]"}, "Caspase-6": {"target": "T1, Caspase-6 (Homo sapiens, UniProt P55212)", "T1 construct": "purchased PharMington (PharMingen, a Becton division company, San Diego, Calif.)", "T1 sequence (P55212 24-179 limits assumed)": "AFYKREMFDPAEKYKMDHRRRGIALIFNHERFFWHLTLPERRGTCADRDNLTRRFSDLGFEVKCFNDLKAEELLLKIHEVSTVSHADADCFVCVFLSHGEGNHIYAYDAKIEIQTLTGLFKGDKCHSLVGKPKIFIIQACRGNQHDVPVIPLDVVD", "test": "Recombinant caspase assay with Ac-DEVD-AMC, caspase-6", "assay_type": "biochemical", "conditions": "10 μM Ac-DEVD-AMC, 30 minutes at 37° C.", "experimental": "The inhibitory activity of Cbz-Val-Asp-CH2F in recombinant caspase 3, 6, 7 and 8 obtained from PharMington (a Becton division company, San Diego, Calif.) were measured using Ac-DEVD-AMC (SEQ ID NO:1). The amount of each enzyme per assay was as following: 1 ng caspase3, 15 ng caspase6, 2 ng caspase7 and 60 ng caspase8. The enzyme reaction was conducted in 96-well plate using a caspase buffer (20 mM PIPES, 100 mM NaCl, 10 mM DTT, 1 mM EDTA, 0.1% CHAPS and 10% sucrose, pH 7.2) and the reaction was initiated by adding 10 μM Ac-DEVD-AMC (SEQ ID NO:1) (purchased from Quality Controlled Biochemicals, Inc. Hopkinton, Mass.). Twelve concentrations of Cbz-Val-Asp-CH2F ranged from 30 μM to […] were tested after incubation of the compound with recombinant caspases for 30 minutes at 37° C. […] The data was analyzed using GraphPrism software."}, "[2]": {"test_system": "mouse liver apoptosis model", "test": "Mouse liver apoptosis model (antiFas-induced lethality)", "assay_type": "in vivo", "conditions": "mice", "experimental": "The in vivo activity of the cell death inhibitors of the invention can be tested using the “mouse liver apoptosis” model described by Rodriguez et al. (Rodriguez et al., J. Exp. Med., 184:2067-2072 (1996)). In this model, mice are treated intravenously (IV) with an antiFas antibody which induces massive apoptosis in the liver and other organs, leading to generalized organ failure and death. This model is useful for indirectly testing the systemic bioavailability of the cell death inhibitors of the invention, as well as their in vivo anti-apoptotic properties. The cell death inhibitors of the invention therefore can be used to reduce or prevent apoptosis of liver cells (Jones et al. Hepatology 27: 1632-42 (1998)) such as in sepsis (Jaeschke et al. J. Immunol. 160: 3480-3486 (1998)) and hereditary tyrosinemia type 1 (HT1) (Kubo et al. Prov. Natl. Acad Sci. USA, 95: 9552-9557 (1998). The cell death inhibitors of the invention also can be used to treat hepatitis (Suzuki, Proc. Soc. Exp. Biol. Med. 217: 450-454 (1998)).\nThree to four week old female mice were used in the studies. Liver degeneration was induced by intravenous injection with 2-6 μg of a purified hamster anti-mouse Fas monoclonal antibody (clone Jo2, Pharmingen) against mouse Fas antigen diluted in 80 μl of phosphate buffered physiological saline (Rodriguez, et al., 1996). Mortality was used as the end point to assess liver degeneration. Cbz-Val-Asp-CH2F was formulated in Tris buffer for intravenous infusion and tested at a dose of 1-10 mg/kg given IV via the tail vein. Ten minutes later, animals were injected with Fas antibody. Mortality was counted at 30 mins, 1, 3 and 24 h. For each compound there were groups of control animals that receive Fas antibody only."}},
  "data": [
    {"smiles": "CC(C)[C@H](NC(=O)OCc1ccccc1)C(=O)NC(CC(=O)O)C(=O)CF", "note": "(stereo partly drawn) [Cbz-Val-Asp-CH2F, Z-Val-Asp-fmk]", "values": [
      {"measurement": "reduction of cortical infarction", "setting": "[1]; Experiment 1: rat, 20 mg/kg IV bolus 10 minutes after onset of ischemia + 5 mg/kg/hr IV infusion for 6 h", "value": 46, "unit": "%"},
      {"measurement": "reduction of cortical infarction", "setting": "[1]; Experiment 2: rat, 20 mg/kg IV bolus 10 minutes after onset of ischemia + 5 mg/kg/hr IV infusion for 12 h", "value": 57, "unit": "%"},
      {"measurement": "tolerability following acute IV dosing", "setting": "[1]; rat", "value": "well tolerated"},
      {"measurement": "changes in blood pressure, blood gas, or temperature following drug administration", "setting": "[1]; rat, 20 mg/kg IV bolus + 5 mg/kg/hr infusion", "value": "no changes"},
      {"measurement": "IC50", "setting": "Caspase-6", "value": 18.4, "unit": "nM"},
      {"measurement": "induction of the liver enzymes SPGT and SGOT", "setting": "[2]; antiFas, separate studies", "value": "attenuation"},
      {"measurement": "protection from antiFas-induced lethality", "setting": "[2]; single 1 mg/kg IV dose, up to 1 h after antibody administration", "value": "completely protected"},
      {"measurement": "survival", "setting": "[2]; up to 24 h after antiFas", "value": 28, "unit": "%"}
    ]}
  ]
}
